By DC50 is commonly meant the concentration giving 50% degradation. By Dmax is commonly meant the greatest extent of degradation seen.

The test addresses T1, HPK1 (Homo sapiens, UniProt Q92918).
T1 construct: A HiBiT tag was introduced by CRISPR on the N terminus of HPK1 in Jurkat cells; host or cells: Jurkat cells (ATCC TIB-152), monoclonal line with CRISPR knock-in of HiBiT at the endogenous HPK1 locus
As to the kind of experiment: HPK1 Cellular HiBit Degradation Assay. The format is cell-based. The conditions noted are these: HiBiT HPK1 Jurkat cells, 24 hrs; for DC50: concentration at which 50% of HPK1 was remaining, read-out: DC50 Category; for Dmax: Jurkat, read-out: Dmax Category. The protocol: HPK1 Cellular HiBit Degradation Assay
A HiBiT tag was introduced by CRISPR on the N terminus of HPK1 in Jurkat cells (ATCC® TIB-152) to allow quantitation of HPK1 protein levels in a monoclonal human cell line. Cells were plated at 1×10^6 cells/mL, 30 uL/well (3×10^4 cells/well) in complete RPMI 1640 (10% heat inactivated FBS, 1% L-glutamine) in 384-well assay plates (Corning, cat. no. 3570). HPK1 chimeric targeting molecules (CTMs) were added in an 11 point dilution series (11-point, 3.16-fold) with a final assay concentration range of 10 uM to 0.1 nM. The parental Jurkat cell line, with no HiBiT insertion, was included in the assay as a background control. Cell treated with a DMSO vehicle control was used to determine the maximum signal defining 100% HPK1 in the cell. Cells were incubated for 24 hrs at 37° C./5% CO2. Following incubation, 30 uL of complete Nano-Glo HiBiT Lytic Detection Reagent (Promega cat. no. N3040) was added. Cells were incubated for 10 min at room temperature and luminescence was read on an EnVision plate reader (Perkin Elmer, 0.1 sec per well). Viability was assessed in the same plate using Cell Titer Fluor (Promega) and read on an EnVision plate reader to ensure results were not the effect of cytotoxicity. Percent HPK1 remaining per sample was calculated as follows:
[formula] % HPK1 remaining values were plotted as a function of compound concentration and curves were fit using the Prism (GraphPad) equation “log(inhibitor) vs response−Variable slope (four parameters)”. Dmax values were calculated by identifying the lowest % remaining and subtracting from 100. DC50 values were determined by extrapolating from the curve the concentration at which 50% of HPK1 was remaining based on the DMSO control.
HiBiT HPK1 Jurkat cell lines were used to evaluate the total protein levels of HPK1 in a robust human cellular high throughput format. The level of HPK1 remaining following treatment with HPK1 CTMs is reported as Dmax (maximum degradation) achieved at 24 hours when compared to vehicle treated controls. […] These decreases were not a result of cytotoxicity measured by a viability assessment.
(HiBiT is a short tag that completes a luciferase, so light tracks the accessible tagged protein.)

Setting [1] is: maximum degradation vs DMSO vehicle control.

T1 sequence (Q92918 whole entry): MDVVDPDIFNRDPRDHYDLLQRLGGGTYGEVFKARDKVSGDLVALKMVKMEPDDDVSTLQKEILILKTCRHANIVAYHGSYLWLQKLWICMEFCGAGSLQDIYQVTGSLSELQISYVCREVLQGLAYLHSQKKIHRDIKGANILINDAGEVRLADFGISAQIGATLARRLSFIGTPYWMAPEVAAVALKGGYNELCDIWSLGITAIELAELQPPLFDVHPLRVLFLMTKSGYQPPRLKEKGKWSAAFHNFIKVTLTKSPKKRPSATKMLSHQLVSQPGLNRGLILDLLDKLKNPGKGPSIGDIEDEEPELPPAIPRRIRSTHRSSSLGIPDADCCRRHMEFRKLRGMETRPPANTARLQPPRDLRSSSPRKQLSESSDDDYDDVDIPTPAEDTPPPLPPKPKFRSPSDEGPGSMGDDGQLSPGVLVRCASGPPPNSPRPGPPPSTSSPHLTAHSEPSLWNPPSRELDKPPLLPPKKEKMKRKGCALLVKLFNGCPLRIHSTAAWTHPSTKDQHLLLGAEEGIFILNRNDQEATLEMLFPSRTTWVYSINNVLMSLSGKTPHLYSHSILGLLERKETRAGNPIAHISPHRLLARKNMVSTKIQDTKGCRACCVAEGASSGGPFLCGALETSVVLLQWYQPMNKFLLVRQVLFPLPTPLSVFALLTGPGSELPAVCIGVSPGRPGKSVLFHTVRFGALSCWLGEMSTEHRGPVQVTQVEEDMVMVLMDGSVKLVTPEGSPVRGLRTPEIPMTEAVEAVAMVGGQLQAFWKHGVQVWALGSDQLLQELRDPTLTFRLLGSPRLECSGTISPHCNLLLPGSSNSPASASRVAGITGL

On to `CC(C)n1cnc2cc(-c3ccc4c(c3)N([C@H]3C[C@@H](N5CCCCC5)C3)C(=O)C43CCN(C(=O)[C@@H]4CCN(C(=O)[C@H]5CC[C@H](Nc6cncc(C7CCC(=O)NC7=O)c6)CC5)C4)CC3)nc(Nc3ccccc3F)c21` (mixture of isomers) [Example 12, (3RS)-3-(5-{[(1R,4R)-4-[(3R)-3-[(6-{4-[(2-fluorophenyl)amino]-3-(propan-2-yl)-3H-imidazo[4,5-c]pyridin-6-yl}-2-oxo-1-[(1S,3S)-3-(piperidin-1-yl)cyclobutyl]-1,2-dihydrospiro[indole-3,4′-piperidin]-1′-yl)carbonyl]pyrrolidine-1-carbonyl]cyclohexyl]amino}pyridin-3-yl)piperidine-2,6-dione], for which the DC50 was in the range of 500 to 1000 nM. Moreover, the Dmax under setting [1] was in the range of 70 to 85%.
Taken in the same sequence, the figures for `CC(C)n1cnc2cc(-c3ccc4c(c3)N([C@H]3C[C@@H](N5CCCCC5)C3)C(=O)C43CCN(C(=O)[C@@H]4CCN(C(=O)[C@H]5CC[C@H](Oc6ccc(C7CCC(=O)NC7=O)cn6)CC5)C4)CC3)nc(NC3CC3)c21` (mixture of isomers) [Example 16, (3RS)-3-(6-{[(1R,4R)-4-[(3R)-3-({6-[4-(cyclopropylamino)-3-(propan-2-yl)-3H-imidazo[4,5-c]pyridin-6-yl]-2-oxo-1-[(1S,3S)-3-(piperidin-1-yl)cyclobutyl]-1,2-dihydrospiro[indole-3,4′-piperidin]-1′-yl}carbonyl)pyrrolidine-1-carbonyl]cyclohexyl]oxy}pyridin-3-yl)piperidine-2,6-dione] were 500 to 1000 nM and 70 to 85%.
Taken in the same sequence, the figures for `CC(C)n1cnc2cc(-c3ccc4c(c3)N([C@H]3C[C@@H](N5CCCCC5)C3)C(=O)C43CCN(C(=O)[C@@H]4CCN(C(=O)[C@H]5CC[C@H](Oc6ccc(C7CCC(=O)NC7=O)cn6)CC5)C4)CC3)nc(Nc3ccccc3F)c21` (mixture of isomers) [Example 17, (3RS)-3-(6-{1[(1R,4R)-4-[(3R)-3-[(6-{4-[(2-fluorophenyl)amino]-3-(propan-2-yl)-3H-imidazo[4,5-c]pyridin-6-yl}-2-oxo-1-[(1S,3S)-3-(piperidin-1-yl)cyclobutyl]-1,2-dihydrospiro[indole-3,4′-piperidin]-1′-yl)carbonyl]pyrrolidine-1-carbonyl]cyclohexyl]oxy}pyridin-3-yl)piperidine-2,6-dione] were < 100 nM and > 85%.
Regarding `CC(C)n1cnc2cc(-c3ccc4c(c3)N([C@H]3C[C@@H](N5CCCCC5)C3)C(=O)C43CCN(C(=O)[C@@H]4CCN(C(=O)[C@H]5CC[C@H](Oc6ccc(C7CCC(=O)NC7=O)cn6)CC5)C4)CC3)nc(Nc3ccncc3F)c21` (mixture of isomers) [Example 18, (3RS)-3-(6-{[(1R,4R)-4-[(3R)-3-[(6-{4-[(3-fluoropyridin-4-yl)amino]-3-(propan-2-yl)-3H-imidazo[4,5-c]pyridin-6-yl}-2-oxo-1-[(1S,3S)-3-(piperidin-1-yl)cyclobutyl]-1,2-dihydrospiro[indole-3,4′-piperidin]-1′-yl)carbonyl]pyrrolidine-1-carbonyl]cyclohexyl]oxy}pyridin-3-yl)piperidine-2,6-dione], the DC50 was in the range of 100 to 500 nM. Besides, under setting [1], the Dmax lay within 70 to 85%.
In the same order, the values of `CC(C)n1cnc2cc(-c3ccc4c(c3)N([C@H]3C[C@@H](N5CCCCC5)C3)C(=O)C43CCN(C(=O)[C@@H]4CCN(C(=O)[C@H]5CC[C@H](Oc6ccc(C7CCC(=O)NC7=O)cn6)CC5)C4)CC3)nc(NC3CCOCC3)c21` (mixture of isomers) [Example 19, (3RS)-3-(6-{[(1R,4R)-4-[(3R)-3-[(6-{4-[(oxan-4-yl)amino]-3-(propan-2-yl)-3H-imidazo[4,5-c]pyridin-6-yl}-2-oxo-1-[(1S,3S)-3-(piperidin-1-yl)cyclobutyl]-1,2-dihydrospiro[indole-3,4′-piperidin]-1′-yl)carbonyl]pyrrolidine-1-carbonyl]cyclohexyl]oxy}pyridin-3-yl)piperidine-2,6-dione] are < 100 nM and 70 to 85%.
On to `CC(C)n1cnc2cc(-c3ccc4c(c3)N([C@H]3C[C@@H](N5CCCCC5)C3)C(=O)C43CCN(C(=O)[C@@H]4CCN(C(=O)C5CCN(c6ccc(C7CCC(=O)NC7=O)cn6)CC5)C4)CC3)nc(NC3CC3)c21` (mixture of isomers) [Example 23, (3RS)-3-(6-{4-[(3R)-3-({6-[4-(cyclopropylamino)-3-(propan-2-yl)-3H-imidazo[4,5-c]pyridin-6-yl]-2-oxo-1-[(1S,3S)-3-(piperidin-1-yl)cyclobutyl]-1,2-dihydrospiro[indole-3,4′-piperidin]-1′-yl}carbonyl)pyrrolidine-1-carbonyl]piperidin-1-yl}pyridin-3-yl)piperidine-2,6-dione], for which the DC50 was < 100 nM. The Dmax under setting [1] was 70 to 85%.
On to `CC(C)n1cnc2cc(-c3ccc4c(c3)N(C3CC(N5CCCCC5)C3)C(=O)C43CCN(C(=O)[C@@H]4CCN(C(=O)C5CCN(c6ccc(C7CCC(=O)NC7=O)cn6)CC5)C4)CC3)nc(Nc3ccncc3F)c21` (mixture of isomers) [Example 25, (3RS)-3-(6-{4-[(3R)-3-[(6-{4-[(3-fluoropyridin-4-yl)amino]-3-(propan-2-yl)-3H-imidazo[4,5-c]pyridin-6-yl}-2-oxo-1-[(1S,3S)-3-(piperidin-1-yl)cyclobutyl]-1,2-dihydrospiro[indole-3,4′-piperidin]-1′-yl)carbonyl]pyrrolidine-1-carbonyl]piperidin-1-yl}pyridin-3-yl)piperidine-2,6-dione], for which the DC50 was < 100 nM. For the same molecule, the “Dmax Category” value under setting [1] is listed as “B (B: >70%-<85%)”.
Take `CC(C)n1cnc2cc(-c3ccc4c(c3)N([C@H]3C[C@@H](N5CCCCC5)C3)C(=O)C43CCN(C(=O)[C@H]4CC[C@H](C(=O)N5CCC(Nc6ccc(C7CCC(=O)NC7=O)cn6)CC5)CC4)CC3)nc(Nc3ccncc3F)c21` (mixture of isomers) [Example 27]: the DC50 is < 100 nM. Besides, the Dmax under setting [1] was 50 to 70%.
In the same order, the values of `CC(C)n1cnc2cc(-c3ccc4c(c3)N([C@H]3C[C@@H](N5CCCCC5)C3)C(=O)C43CCN(C(=O)[C@H]4CC[C@H](C(=O)N5CCC(Oc6ccc(C7CCC(=O)NC7=O)cn6)CC5)CC4)CC3)nc(Nc3ccccc3F)c21` (mixture of isomers) [Example 28, (3RS)-3-[6-({1-[(1R,4R)-4-[(6-{4-[(2-fluorophenyl)amino]-3-(propan-2-yl)-3H-imidazo[4,5-c]pyridin-6-yl}-2-oxo-1-[(1S,3S)-3-(piperidin-1-yl)cyclobutyl]-1,2-dihydrospiro[indole-3,4′-piperidin]-1′-yl)carbonyl]cyclohexanecarbonyl]piperidin-4-yl}oxy)pyridin-3-yl]piperidine-2,6-dione] are < 100 nM and 70 to 85%.
Taken in the same sequence, the figures for `CC(C)n1cnc2cc(-c3ccc4c(c3)N([C@H]3C[C@@H](N5CCCCC5)C3)C(=O)C43CCN(C(=O)[C@H]4CC[C@@H](C(=O)N5CCC(Nc6ccc(C7CCC(=O)NC7=O)cn6)CC5)CC4)CC3)nc(NC3CC3)c21` (mixture of isomers) [Example 29, (3RS)-3-[6-({1-[(1S,4S)-4-({6-[4-(cyclopropylamino)-3-(propan-2-yl)-3H-imidazo[4,5-c]pyridin-6-yl]-2-oxo-1-[(1S,3S)-3-(piperidin-1-yl)cyclobutyl]-1,2-dihydrospiro[indole-3,4′-piperidin]-1′-yl}carbonyl)cyclohexanecarbonyl]piperidin-4-yl}amino)pyridin-3-yl]piperidine-2,6-dione] were < 100 nM and 50 to 70%.
In the same order, the values of `CC(C)n1cnc2cc(-c3ccc4c(c3)N([C@H]3C[C@@H](N5CCCCC5)C3)C(=O)C43CCN(C(=O)[C@H]4CC[C@@H](C(=O)N5CCC(Nc6ccc(C7CCC(=O)NC7=O)cn6)CC5)CC4)CC3)nc(Nc3ccccc3F)c21` (mixture of isomers) [Example 30, (3RS)-3-[6-({1-[(1S,4S)-4-[(6-{4-[(2-fluorophenyl)amino]-3-(propan-2-yl)-3H-imidazo[4,5-c]pyridin-6-yl}-2-oxo-1-[(1S,3S)-3-(piperidin-1-yl)cyclobutyl]-1,2-dihydrospiro[indole-3,4′-piperidin]-1′-yl)carbonyl]cyclohexanecarbonyl]piperidin-4-yl}amino)pyridin-3-yl]piperidine-2,6-dione] are < 100 nM and 70 to 85%.
